According to PMC11802874, “The hypolipidemic effect of MI-883, the combined CAR agonist/ PXR antagonist, in diet-induced hypercholesterolemia model” (Nature Communications, 2025):
Several values for one entry are separate records, joined by “and”; a condition that tells them apart may be missing. Equal entries are not always repeated.

Experiments:
[1] = system: 3D primary human hepatocyte spheroids; assay: ATP production and spheroid size in 3D PHH spheroids; type: cell-based
Protocol: Briefly, PHHs were cultivated for 6 days to generate compact spheroids by spontaneous self-aggregation and then half of PHH medium was exchanged for FBS-free PHH medium. 3D PHHs were treated with MI-883 (5 μM) commenced from day 8 within a time range of 8–120 h (time points were 8, 12, 24, 48, 72, and 120 h). Conditioned FBS-free PHH medium was changed every 2–3 days of the treatment. […] Data are presented as the mean ± SD of fold change expression gained from 3D spheroids of three different donors. ATP assay has been performed as described.

[2] = system: humanized PXR-CAR-CYP3A4/3A7 mice; assay: Bile acid analysis in plasma, liver and stool (HFD study); type: in vivo, mouse
Protocol: Materials and reagents and sample preparation have been described in our last paper[63] (see Supplementary, Chapter 12). Concentrations of bile acids in plasma, bile, and feces were determined using the UHPLC-MS method. The bile acids separation was conducted on the ACQUITY UPLC I-Class System (Waters, Milford, MA, USA) using a Triart C18 column (50 mm × 2.1 mm ID, 1.9 µm) from YMC, Japan. The column was maintained at 45 °C and was safeguarded by a disposable CrudCatcher in-line filter (Phenomenex, Torrance, CA, USA). The mobile phase flowed at a rate of 0.35 mL/min and consisted of solvent A (0.5 mmol/L ammonium acetate, 0.001% v/v acetic acid in water) and solvent B (0.5 mmol/L ammonium acetate, 0.001% v/v acetic acid in a 3:1 v/v mixture of methanol and acetonitrile). The gradient program followed this sequence. […] This was succeeded by an isocratic washout with 95% (v/v) solvent B from 9.0 to 10.5 min, followed by equilibration with 40% (v/v) solvent B from 10.5 to 12 min. 2 μL of sample were injected into column. Column effluent was monitored with Xevo TQ-XS triple quadrupole detector operated in positive electrospray mode. Further details can be found in the publication by Uher et al.[72].
The processing of the UHPLC-MS data was performed using TargetLynx software (Waters, Milford, MA, USA). The ratio of an analyte’s peak area and the internal standard was evaluated against a calibration curve, and the concentration for each bile acid was calculated. For further data analysis, the concentrations of individual BAs were summed to calculate the concentration of conjugated, unconjugated, 12-OH, non-12-OH, and total bile acids.
To cover a wide concentration range of bile acids, two sets of plasma aliquots were prepared. The first set, with a volume of 10 μL, was diluted tenfold with MilliQ water. The second set, with a volume of 100 μL, was used without dilution, and the subsequent procedure remained identical for both sets. […]

[3] = system: humanized PXR-CAR-CYP3A4/3A7 mice; assay: Hepatic induction study in humanized PXR-CAR-CYP3A4/3A7 mice (i.p.); type: in vivo, mouse
Source text: In the induction experiments, […] was sampled from the gallbladder.

[4] = system: humanized PXR-CAR-CYP3A4/3A7 mice, liver; assay: Liver enzymatic TG measurement (HFD study); type: in vivo, mouse
Protocol: The liver tissue (10 mg) was homogenized using a pre-cooled steel bead in 225 μL of methanol in TissueLyser II (30 Hz, 2 × 30 s) (Qiagen, Hilden, Germany). This was followed by the addition of 750 μL of ice-cold methyl tert-butyl ether. Samples were vortexed and incubated for 1 h on a rotating wheel. Next, 188 μL of LC/MS-grade water was added and, after vortexing, the mixture underwent a short incubation and centrifugation (14,000 × g, 4 °C, 3 min). The upper organic phase containing lipids was collected and 300 μL was transferred to a vial containing 40 μL of 10% Triton X-100 in methanol, followed by evaporation on a heating block with shaking function (300 rpm, 45 °C). LC/MS-grade water (100 μL) was added to the evaporated sample and the tube was vortexed (1000 rpm, 35 °C). The samples were measured using a TG assay (Beckman Coulter, Brea, CA, USA) and a glycerol assay (Randox laboratories, Crumlin, UK) on an AU480 biochemistry analyzer (Beckman Coulter, Brea, CA, USA). The glycerol value was subtracted from the TG value. Livers from seven (n = 7) vehicle-treated controls and ten (n = 10) MI-883-treated animals were used.

PXR LBD = target: T1, PXR LBD (Homo sapiens, UniProt O75469); assay: TR-FRET PXR LBD competitive binding assay (LanthaScreen); conditions: recombinant PXR LBD
T1 construct: purchased ThermoFisher Scientific
Protocol: The LanthaScreen TR-FRET PXR Competitive Binding Assay (ThermoFisher Scientific, USA) was performed to evaluate interaction with PXR LBD as we described. The assay measures the ability of an evaluated compound to replace the fluorescent PXR ligand from the receptor. The fluorescence was measured using a Synergy 2 Multi-Mode Microplate Reader (BioTek Winooski, VT, USA) (n = 3).

[5] = single agents i.p.: Rif 3×5 mg/kg, CITCO 10 mg/kg two doses, MI-883 10 mg/kg 3 days

T1 sequence (O75469 146-433 limits assumed): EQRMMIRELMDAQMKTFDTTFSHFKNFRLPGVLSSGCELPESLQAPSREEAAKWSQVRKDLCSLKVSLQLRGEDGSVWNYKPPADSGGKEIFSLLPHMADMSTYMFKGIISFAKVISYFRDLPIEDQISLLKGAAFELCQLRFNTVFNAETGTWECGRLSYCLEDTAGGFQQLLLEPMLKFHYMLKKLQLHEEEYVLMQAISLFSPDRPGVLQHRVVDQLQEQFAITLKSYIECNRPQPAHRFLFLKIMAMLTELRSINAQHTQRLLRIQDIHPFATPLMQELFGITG

For NC(=O)c1cc(Cn2cc(-c3c(-c4ccc(Cl)cc4)nc4cc(F)ccn34)nn2)ccc1Cl [MI-883, 2-chloro-5-((4-(2-(4-chlorophenyl)-7-fluoroimidazo[1,2-a]pyridin-3-yl)-1H-1,2,3-triazol-1-yl)methyl)benzamide], the “spheroid size or ATP production in 3D PHHs” value ([1]; 5 μM, 72 h) was “did not see any decrease”, the “Fig. 7c readout relative to control (control 100)” value ([1]; 5 uM, three replicates, control = 100) was 92.8 and 153.7 and 124.1 and the “total BA content in the stool after 24 h” value [2] was “significant increase”. For the same molecule, the “total bile acid concentration in plasma and livers” value [2] was “not affected”, the “βMCA and CDCA in the stool” value [2] was “significant (P < 0.05) increase” and the “fold mRNA induction CYP3A4 in livers of humanized PXR-CAR-CYP3A mice” value ([3]; MI-883 10 mg/kg i.p. 3 days, not significant) was 1.9 fold. For the same molecule, the “hepatic CYP3A4 mRNA, hPXR/hCAR/CYP3A4/7 mice (Fig. 3e), individual animals” value ([3]; Rif + MI-883 combination i.p.) was 15.1375 and 21.1204 and 7.333 and 13.3527, the “hepatic Cyp2b10 mRNA, hPXR/hCAR/CYP3A4/7 mice (Fig. 3e), individual animals” value ([3]; Rif + MI-883 combination i.p.) was 37.4609 and 22.8189 and 29.2533 and 22.0407 and the “hepatic CYP3A4 mRNA, hPXR/hCAR/CYP3A4/7 mice (Fig. 3e), individual animals” value [3, 5] was 2.527 and 2.124 and 1.135. For the same molecule, the “hepatic Cyp2b10 mRNA, hPXR/hCAR/CYP3A4/7 mice (Fig. 3e), individual animals” value [3, 5] was 5.955 and 3.722 and 12.2143, the “Cyp2b10 mRNA in the liver, preliminary studies” value ([3]; single dose of 5 mg/kg in oral gavage) was “significant induction” and the “TG accumulation in male livers, enzymatic assay” value [4] was “no significant impact”. For the same molecule, the IC50 (PXR LBD) was 0.1 ± 0.02 µM.
